Data from ChEMBL document CHEMBL4610128, “Structural and Mechanistic Basis of the Inhibitory Potency of Selected 2-Aminothiazole Compounds on Protein Kinase CK2” (J Med Chem, 2020).

Tests used:
[1] = target: Casein kinase II alpha/beta (Homo sapiens, UniProt P68400); assay: ATP competitive inhibition of recombinant human CK2alpha2 (1 to 335 residues)/CK2beta2 (1 to 193 residues) expressed in Escherichia coli BL21(DE3) using RRRDDDSDDD as substrate preincubated for 10 mins followed by substrate addition and measured after 5 mins in presence of varying level of [gamma-32P]ATP by Dixon-plot analysis
[2] = target: Casein kinase II alpha'/ beta (Homo sapiens) (UniProt P67870+P19784); assay: Ratio of Ki for ATP uncompetitive inhibition to Ki for ATP competitive inhibition of recombinant human CK2alpha2 (1 to 335 residues)/CK2beta2 (1 to 193 residues) expressed in Escherichia coli BL21(DE3)

Ki [1] [nM]	Ratio Ki [2]	SMILES
206	16.3	O=C(O)c1ccc(Nc2nc(-c3ccc(Cl)cc3)cs2)cc1O
1470	36.5	O=C(O)c1cccc(Nc2nc(-c3ccccn3)cs2)c1
